# Reference: patent US20240165281A1, “DUAL MODE RADIOTRACER AND THERAPEUTICS” (Technische Universität München, priority 2021, published 2024)
# Experiments:
# [1] = tested on: LNCaP tumor-bearing male CB-17 SCID mice; assay: Biodistribution studies 24 h p.i.
# Experimental: Approximately 3-7 MBq (0.1-0.2 nmol) of the radioactive-labelled PSMA inhibitors were injected into the tail vein of LNCaP tumor-bearing male CB-17 SCID mice and sacrificed after 24 h post injection. Selected organs were removed, weighted and measured in a γ-counter. Results are all decay corrected and given in % injected dose per gram of tissue (% iD/g). Tumor-to-organ ratios are calculated from animals' individual ratios and are given as mean±standard deviation.
# LNCaP cells = assay: Internalization studies in LNCaP cells; type: cell-based; conditions: 37° C., 60 min
# Experimental: PSMA-positive LNCAP cells (300265; Cell Lines Service, Eppelheim, Germany) were cultivated in Dulbecco modified Eagle medium/Nutrition Mixture F-12 with Glutamax (1:1) (DMEM-F12, Biochrom, Berlin, Germany) supplemented with fetal bovine serum (10%, FBS Zellkultur, Berlin, Germany) and kept at 37° C. in a humidified CO2 atmosphere (5%). A mixture of trypsin and EDTA (0.05%, 0.02%) in PBS (Biochrom) was used in order to harvest cells. Cells were counted with a Neubauer hemocytometer (Paul Marienfeld, Lauda-Königshofen, Germany).
# For internalization studies, LNCaP cells were harvested 24±2 hours before the experiment and seeded in poly-L-lysine coated 24-well plates (1.25×10^5 cells in 1 mL/well, Greiner Bio-One, Kremsmünster, Austria). After removal of the culture medium, the cells were washed once with 500 μL DMEM-F12 (5% BSA) and left to equilibrate for at least 15 min at 37° C. in […] DMEM-F12 (5% BSA). Each well was treated with either 25 μL of either DMEM-F12 (5% BSA, control) or 25 μL of a 100 μM PMPA (2-(Phosphonomethyl)-pentandioic acid, Tocris Bioscience, Bristol, UK) solution in PBS, for blockade. Next, 25 μL of the radioactive-labelled PSMA inhibitor (10.0 nM in DMEM-F12 (5% BSA)) was added and the cells were incubated at 37° C. for 60 min. The experiment was terminated by placing the 24-well plate on ice for 3 min and consecutive removal of the medium. Each well was carefully washed with 250 μL of ice-cold HBSS. Both fractions from the first steps, representing the amount of free radioligand, were combined. Removal of surface bound activity was accomplished by incubation of the cells with 250 μL of ice-cold PMPA (10 μM in PBS) solution for 5 min and rinsed again with another 250 μL of ice-cold PBS. The internalized activity was determined by incubation of the cells in 250 μL […] aqueous NaOH for at least 10 min. The obtained fractions were combined with those of the subsequent wash step with 250 μL 1 M aqueous NaOH. Each experiment (control and blockade) was performed in triplicate. Free, surface bound and internalized activity was quantified in a y-counter. All internalization studies were accompanied by external reference studies, using ([^125I]I-BA)KuE (c=0.2 nM), which were performed analogously. Data were corrected for non-specific binding and normalized to the specific-internalization observed for the radioiodinated reference compound.
# [2] = target: T1, Human Serum Albumin (HSA) (Homo sapiens, UniProt P02768); assay: Human serum albumin (HSA) binding by high performance affinity chromatography (HPAC); type: in vitro ADME; conditions: Chiralpak HSA column
# T1 construct: purchased Daicel H13H-2433
# T1 sequence (P02768 25-609): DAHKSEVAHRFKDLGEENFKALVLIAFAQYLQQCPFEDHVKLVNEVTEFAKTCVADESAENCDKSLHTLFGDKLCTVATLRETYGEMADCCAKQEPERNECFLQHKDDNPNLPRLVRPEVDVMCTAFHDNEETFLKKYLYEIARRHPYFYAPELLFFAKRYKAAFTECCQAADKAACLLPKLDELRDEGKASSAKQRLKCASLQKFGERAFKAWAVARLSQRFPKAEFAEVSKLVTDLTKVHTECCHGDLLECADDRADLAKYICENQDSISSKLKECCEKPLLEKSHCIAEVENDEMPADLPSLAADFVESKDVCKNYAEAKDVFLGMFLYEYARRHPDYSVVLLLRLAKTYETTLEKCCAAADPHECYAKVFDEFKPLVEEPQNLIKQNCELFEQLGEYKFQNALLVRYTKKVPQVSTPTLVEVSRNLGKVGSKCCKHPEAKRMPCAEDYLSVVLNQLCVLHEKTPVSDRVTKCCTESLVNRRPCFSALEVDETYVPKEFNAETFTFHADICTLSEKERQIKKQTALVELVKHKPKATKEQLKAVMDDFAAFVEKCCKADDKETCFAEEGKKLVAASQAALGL
# Experimental: Determination of Human Serum Albumin (HSA) Binding by High Performance Affinity Chromatography (HPAC)
# HSA binding of the PSMA-addressing ligands was determined according to a previously published procedure via HPLC (Valko, K.; Nunhuck, S.; Bevan, C.; Abraham, M. H.; Reynolds, D. P. Journal of pharmaceutical sciences 2003, 92, 2236-2248). A Chiralpak HSA column (50×3 mm, 5 μm, H13H-2433, Daicel, Tokyo, Japan) was used at a constant flow rate of 0.5 mL/min at rt. Mobile phase A was a freshly prepared 50 mM aqueous solution of NH4OAc (pH 6.9) and mobile phase B was isopropanol (HPLC grade, VWR). The applied gradient for all experiments was 100% A (0 to 3 min), followed by 80% A (3 to 40 min). Prior to the experiment, the column was calibrated using nine reference substances with a HSA binding, known from literature, in the range of 13 to 99% (Valko, K.; Nunhuck, S.; Bevan, C.; Abraham, M. H.; Reynolds, D. P. Journal of pharmaceutical sciences 2003, 92, 2236-2248; Yamazaki, K.; Kanaoka, M. Journal of Pharmaceutical sciences 2004, 93, 1480-1494). All substances, including the examined PSMA ligands, were dissolved in a 1:1 mixture (v/v) of isopropanol and a 50 mM aqueous solution of NH4OAc (pH6.9) with a final concentration of 0.5 mg/mL. Non-linear regression was established with the OriginPro 2016G software (Northampton, United States) (FIG. 8).
# [3] = mean, listed as [^177Lu]Lu-2C013
structure (smiles),measurement,setting,value
CC(C)(C)[Si](F)(c1ccc(C(=O)NC[C@@H](NC(=O)CN2CCN(CC(=O)O)CCN(CC(=O)O)CCN(CC(=O)O)CC2)C(=O)N[C@H](CO)C(=O)NCCC(=O)NCCC(=O)NCCC[C@@H](NC(=O)CC[C@H](NC(=O)N[C@@H](CCC(=O)O)C(=O)O)C(=O)O)C(=O)O)cc1)C(C)(C)C [Compound 2C013],Kidneys (24 h),[1]; Table 1,0.95 ± 0.42 % iD/g
same,Tumor (24 h),[1]; Table 1,7.59 ± 1.23 % iD/g
same,In vivo biodistribution (24 h p.i.) blood,[1]; Table 6,0.0013 ± 0.0007 % iA/g
same,In vivo biodistribution (24 h p.i.) kidney,[1]; Table 6,0.95 ± 0.42 % iA/g
same,In vivo biodistribution (24 h p.i.) tumor,[1]; Table 6,7.59 ± 1.23 % iA/g
same,uptake in adrenals,[1]; mean,0.0618 % iD/g
same,uptake in blood,[1]; mean,0.0013 % iD/g
same,uptake in intestine,[1]; mean,0.3354 % iD/g
same,uptake in kidney,[1]; mean,0.9488 % iD/g
same,uptake in liver,[1]; mean,0.2519 % iD/g
same,uptake in lung,[1]; mean,0.0438 % iD/g
same,uptake in pancreas,[1]; mean,0.0165 % iD/g
same,uptake in parotid gl.,[1]; mean,0.0554 % iD/g
same,uptake in spleen,[1]; mean,0.3891 % iD/g
same,uptake in stomach,[1]; mean,0.0846 % iD/g
same,uptake in tumor,[1]; mean,7.5897 % iD/g
same,uptake in bone,"[1]; mean, listed as [^177Lu]2C013",0.037 % iD/g
same,uptake in heart,"[1]; mean, listed as [^177Lu]2C013",0.019 % iD/g
same,uptake in muscle,"[1]; mean, listed as [^177Lu]2C013",0.004 % iD/g
same,uptake in submand. gl.,"[1]; mean, listed as [^177Lu]2C013",0.036 % iD/g
same,uptake in bone,[1]; [3],0.0370 % iD/g
same,uptake in heart,[1]; [3],0.0190 % iD/g
same,uptake in muscle,[1]; [3],0.0040 % iD/g
same,uptake in submand. gl.,[1]; [3],0.0360 % iD/g
same,tumor-to-organ ratio adrenals,"[1]; n = 4, mean",131.27
same,tumor-to-organ ratio blood,"[1]; n = 4, mean",6891.48
same,tumor-to-organ ratio bone,"[1]; n = 4, mean",208.29
same,tumor-to-organ ratio heart,"[1]; n = 4, mean",403.61
same,tumor-to-organ ratio intestine,"[1]; n = 4, mean",60.29
same,tumor-to-organ ratio kidney,"[1]; n = 4, mean",9.04
same,tumor-to-organ ratio liver,"[1]; n = 4, mean",31.82
same,tumor-to-organ ratio lung,"[1]; n = 4, mean",189.80
same,tumor-to-organ ratio muscle,"[1]; n = 4, mean",2075.70
same,tumor-to-organ ratio pancreas,"[1]; n = 4, mean",492.10
same,tumor-to-organ ratio parotid gl.,"[1]; n = 4, mean",140.11
same,tumor-to-organ ratio spleen,"[1]; n = 4, mean",21.03
same,tumor-to-organ ratio stomach,"[1]; n = 4, mean",145.92
same,tumor-to-organ ratio submand. gl.,"[1]; n = 4, mean",211.04
same,Activity accumulation adrenals,"[1]; repeated dataset, n = 5, mean",0.1327 % ID/g
same,Activity accumulation blood,"[1]; repeated dataset, n = 5, mean",0.0016 % ID/g
same,Activity accumulation bone,"[1]; repeated dataset, n = 5, mean",0.1331 % ID/g
same,Activity accumulation heart,"[1]; repeated dataset, n = 5, mean",0.023 % ID/g
same,Activity accumulation intestine,"[1]; repeated dataset, n = 5, mean",0.0615 % ID/g
same,Activity accumulation kidney,"[1]; repeated dataset, n = 5, mean",1.0833 % ID/g
same,Activity accumulation liver,"[1]; repeated dataset, n = 5, mean",0.3202 % ID/g
same,Activity accumulation lung,"[1]; repeated dataset, n = 5, mean",0.0548 % ID/g
same,Activity accumulation muscle,"[1]; repeated dataset, n = 5, mean",0.0056 % ID/g
same,Activity accumulation pancreas,"[1]; repeated dataset, n = 5, mean",0.0173 % ID/g
same,Activity accumulation parotid gl.,"[1]; repeated dataset, n = 5, mean",0.063 % ID/g
same,Activity accumulation spleen,"[1]; repeated dataset, n = 5, mean",0.4246 % ID/g
same,Activity accumulation stomach,"[1]; repeated dataset, n = 5, mean",0.0349 % ID/g
same,Activity accumulation submand. gl.,"[1]; repeated dataset, n = 5, mean",0.038 % ID/g
same,Activity accumulation tumor,"[1]; repeated dataset, n = 5, mean",10.1512 % ID/g
same,tumor-to-organ ratio adrenals,"[1]; repeated dataset, n = 5, mean",78.58
same,tumor-to-organ ratio blood,"[1]; repeated dataset, n = 5, mean",6950.64
same,tumor-to-organ ratio bone,"[1]; repeated dataset, n = 5, mean",73.24
same,tumor-to-organ ratio heart,"[1]; repeated dataset, n = 5, mean",475.05
same,tumor-to-organ ratio intestine,"[1]; repeated dataset, n = 5, mean",263.86
same,tumor-to-organ ratio kidney,"[1]; repeated dataset, n = 5, mean",9.48
same,tumor-to-organ ratio liver,"[1]; repeated dataset, n = 5, mean",31.51
same,tumor-to-organ ratio lung,"[1]; repeated dataset, n = 5, mean",184.32
same,tumor-to-organ ratio muscle,"[1]; repeated dataset, n = 5, mean",1867.35
same,tumor-to-organ ratio pancreas,"[1]; repeated dataset, n = 5, mean",587.5
same,tumor-to-organ ratio parotid gl.,"[1]; repeated dataset, n = 5, mean",172.33
same,tumor-to-organ ratio spleen,"[1]; repeated dataset, n = 5, mean",25.43
same,tumor-to-organ ratio stomach,"[1]; repeated dataset, n = 5, mean",286.18
same,tumor-to-organ ratio submand. gl.,"[1]; repeated dataset, n = 5, mean",270.92
same,T/K-ratio,"[1]; tumor/kidney, Table 1",9.04 ± 3.09
same,Internalization,LNCaP cells; normalized to ([125I]I-BA)KuE,141 ± 8^ % IBA-KuE
same,Internalization,LNCaP cells; normalized to reference,141 ± 8 % IBA
same,HSA (HPAC),[2],88.6%
